The values that follow come from US12527768B2, “Compositions comprising an anti-inflammatory drug and a dicer activator for use in the treatment of neuronal diseases” (NeuroSense Therapeutics Ltd., priority 2017, dated 2026).

Data set [1] concerns chronic electrode-implanted rats. The settings on record: cited from earlier work; for EEG and behavior after intraventricular injection: relatively high dose.
For another data set, the system named is ALS mouse models. To be noted: enhancement of DICER activity; cited from earlier work.
The subject of data set [2] is SOD1 G93R mutant zebrafish larvae. Briefly: Toxicity analysis of larvae (morphology, cardiovascular system, behavior, mortality). The data set is classed as in vivo, zebrafish (Danio rerio). As to the method:
(§1) Treatment protocol SOD1 G93R mutant or WT fish were collected and raised according to accepted and approved protocols, see Westerfield M. The Zebrafish Book: a Guide for the Laboratory Use of Zebrafish (Danio rerio) 2000, incorporated herein as reference. Larvae's morphology was observed (heart rate, overall morphology and behavior) at each day.
Toxicity analysis Fish were observed during the day of administration and the following days to observe toxicity. Acute toxicity was evaluated for apoptosis/necrosis and cardiovascular system abnormalities (heart rate, morphology, hemorrhage and edema). Head, eyes and overall morphological and behavioral toxicity were recorded according to accepted procedures^28.

Data set [3] shares this test system. Briefly: Behavioral analysis (DanioVision): locomotor activity, distance moved. The class given is in vivo, zebrafish (Danio rerio). To be noted: for distance moved compared to non-treated SOD1 mutant, whole experiment: 10 μM in swimming water; for effect on locomotor activity during all three experimental phases: spontaneous swimming, light/dark challenge, recovery from challenge; for distance moved, elevation compared to non-treated SOD1 mutant, whole period of measurement: 6 dpf larvae.
Excerpt: as §1
Two-hundred and forty (240) larvae were selected from the same laying batch to be introduced to three distinct treatments and a control (n=60 per each treatment). First and second treatments were conducted at 3 and 5 days post fertilization (dpf), respectively, when the blood brain barrier (BBB) is fully closed, and the motor neurons (MNs) and neuromuscular junctions (NMJs) are fully developed. The materials were administrated in the swimming water (DB). At day 6, larvae were taken to behavioral analysis using the automated DanioVision™ system. Following analysis, larvae were fixed and whole-mount immunohistochemistry procedure was conducted to be used for high resolution morphological analysis. Treatment protocol is detailed in FIG. 1.
Behavioral analysis DanioVision™, an automated high-throughput tracking system of zebrafish larvae from Noldus Information Technology (Wageningen, the Netherlands), including control of light and dark conditions was used for the measurements and analysis of the results. Each single larvae was put in a single well, with the same volume of swimming water to ensure uniform background. Each animal was tested for its x,y position using dynamic subtraction 30 times per second. The distance each larvae moved in mm was calculated from the x,y position and averaged per time bin of 1 minute (average of 1800 measurements per each 1 minute). The behavioral profile was measured in 3 phases according to changes in environment that we applied, to introduce additional muscle and neurological stress. Spontaneous swimming, light/dark challenge (opto-kinetic response) and recovery from challenge behaviors were recorded and analyzed. All animals from the same treatment: wild type (WT), SOD1 mutant non-treated or treated were averaged per time bin of 1 minute to examine their reaction to additional stress, and then calculated for the whole period of time to get a relative number compared to the non-treated SOD1 mutant swimming behavior. Statistical analysis used was paired Student's t-tests (two-tailed) with two-sample assuming unequal variances. All P-values reported are two-tailed and the significance level was set at 0.05 (*), 0.01 to 0.001 (**) and below 0.001 (***).

Data set [4] relates to cytochrome P450 (CYP450) 2C9 and 3A4. The settings on record: cited from earlier work.
The test system of a further data set is ALS patients. To be noted: clinical trial; cited from earlier work.
Data set [5] relates to inhibitory interneurons of SOD1 mutants. To be noted: 1 μM; cited from earlier work.
For another data set, the system named is RNAi. The settings on record: cited from earlier work.
The subject of a further data set is Pseudomonas aeruginosa. The settings on record: cited from earlier work.
Setting [6] is: 100 μM in swimming water, 0.1% DMSO.
Where [7] appears, read: 100 μM, recovery from challenge phase.
Where [8] appears, read: 100 μM, spontaneous swimming phase.

Molecules are shown by their SMILES. “And” between values parts separate entries of the source, which are not always exact repeats. Equal entries are not always repeated. “Also recorded” adds a separate entry of the source.

With `CC(=O)Oc1ccccc1C(=O)O.NCCCCC(N)C(=O)O` (racemic) [aspirin DL-lysine], the “EEG and behavior after intraventricular injection” value in [1] was “spike and wave complex in EEG without showing remarkable behavioral changes”.
For the compound `CCn1cc(C(=O)O)c(=O)c2cc(F)c(N3CCNCC3)nc21` [Enoxacin], the “effect in two independent ALS mouse models” value with ALS mouse models is listed as “beneficial in vivo”. Also, the “drug induced effects in morphology or mortality” value in data set [2] (Enoxacin 10 μM and 100 μM, 0.1% DMSO) is “no drug induced effects in morphology or mortality were observed”. Further, the “epileptogenic activity, EEG” value in data set [1] (intraventricular, 50 and 100 micrograms) is reported as “potent epileptogenic activity”. The “distance moved compared to non-treated SOD1 mutant, whole experiment” value in data set [3] (0.1% DMSO) is listed as “not changed”. In addition, in [3] (10 μM), the “effect on locomotor activity during all three experimental phases” value is recorded as “nearly no effect”. The “distance moved, elevation compared to non-treated SOD1 mutant, whole period of measurement” value in data set [3] (setting [6]) stood at 20%; in data set [3] (100 μM in swimming water, 0.1% DMSO, listed as enoxacin) it was 19.9%. For the same compound, the “locomotor activity, increase vs non-treated SOD1 mutant, light/dark challenge” value in data set [3] (100 μM, light/dark challenge phase) was found to be 21%. The “locomotor activity, increase vs non-treated SOD1 mutant, recovery from challenge” value in [3] (setting [7]) amounted to 17.6%. Besides, the “locomotor activity, increase vs non-treated SOD1 mutant, spontaneous swimming” value in data set [3] (setting [8]) came to 20.1%.
With `Cc1ccc(-c2cc(C(F)(F)F)nn2-c2ccc(S(N)(=O)=O)cc2)cc1` [Celecoxib], the “toxicity at high concentration” value in [2] (30 μM, 0.3% DMSO, SOD1 mutants and WT) is “cardiovascular toxicity and death”. The “toxicity at lower concentrations” value in [2] (below 10 μM (0.3% DMSO) / 5 μM (0.1% DMSO)) is on record as “no toxicity was evident”. Further, in data set [3] (1 μM in swimming water), the “distance moved, elevation compared to non-treated SOD1 mutant, whole period of measurement” value came to 6%. Also, the “locomotor effect of Celecoxib at 5 μM” value in [3] (5 μM, 0.1% DMSO background) is on record as “subtle locomotor decline; also recorded: reduction in locomotor ability”. Further, the “locomotor effect of Celecoxib at 10 μM” value in data set [3] (10 μM, 0.3% DMSO background) is listed as “subtle locomotor decline; also recorded: Subtle locomotor reduction”. In data set [4], the metabolism in vivo result is “oxidized by cytochrome P450 (CYP450) 2C9 and 3A4 to the inactive metabolite hydroxycelecoxib”.
As for `Nc1nc2ccc(OC(F)(F)F)cc2s1` [Riluzole], the “effect on ALS disease progression” value in the data set on ALS patients is “modestly slowed ALS progression”. Besides, the “neuronal stress in inhibitory interneurons” value in [5] is listed as “reduced”. Also, in data set [3] (1 μM in swimming water), the “distance moved, elevation compared to non-treated SOD1 mutant, whole period of measurement” value is 36% and 36.8%. Besides, the “locomotor activity, increase vs non-treated SOD1 mutant, light/dark challenge” value in data set [3] (1 μM, light/dark challenge phase (10-20 min)) is 32%. Further, in data set [3] (1 μM, recovery from challenge phase (last 10 minutes)), the “locomotor activity, increase vs non-treated SOD1 mutant, recovery from challenge” value was 39.7%. Further, in data set [3] (1 μM, spontaneous swimming phase (0-10 min)), the “locomotor activity, increase vs non-treated SOD1 mutant, spontaneous swimming” value was determined as 38%.
Turning to `O=C(O)c1cn(C2CC2)c2cc(N3CCNCC3)c(F)cc2c1=O` [Ciprofloxacin], the RNAi-enhancing activity entry in the data set on RNAi was “substantial RNAi-enhancing activity”. Also, the “potency against Pseudomonas aeruginosa among quinolones” value in the data set with Pseudomonas aeruginosa is recorded as “most potent quinolone”. Besides, in data set [3] (0.1% DMSO), the “distance moved compared to non-treated SOD1 mutant, whole experiment” value was “did not significantly affect locomotor activity; also recorded: not changed”. Besides, the “effect on locomotor activity during all three experimental phases” value in [3] (10 μM) was “nearly no effect”. Moreover, the “locomotor activity of Ciprofloxacin compared to Enoxacin treatment” value in data set [3] (100 μM each, spontaneous swimming and recovery from challenge) is listed as “elevated locomotor activity compared to Enoxacin treatment”. Further, the “distance moved, elevation compared to non-treated SOD1 mutant, whole period of measurement” value in data set [3] (setting [6]) was 18% and 17.8%. In [3] (setting [7]), the “locomotor activity, increase vs non-treated SOD1 mutant, recovery from challenge” value is listed as 33.5%. Besides, in [3] (setting [8]), the “locomotor activity, increase vs non-treated SOD1 mutant, spontaneous swimming” value came out at 26.2%. The “effect on locomotor activity under dark conditions” value in [3] (1, 10, 50, 100, 200 and 500 μM) is listed as “nearly no effect”. The “locomotor activity in the phase of recovery from stress, dose response” value in [3] (50, 100, 200 and 500 μM, second phase of light) is listed as “dose dependent curve that eventually ended in a plateau”. Also, in data set [3] (200 and 500 μM, spontaneous swimming phase), the “effect on spontaneous swimming at high concentrations” value is recorded as “did not cause elevation in spontaneous swimming”. Moreover, in [3] (tested 1-500 μM), the “most potent concentration in affecting locomotor activity” value came to 100 µM.
`CCOC(=O)Cc1ccc(-c2ccccc2)cc1` [Ferubinac ethyl]: in data set [1], the “EEG and behavior after intraventricular injection” value is “spike and wave complex in EEG without showing remarkable behavioral changes”.
